Laboratory results taken from US20260144766A1, “USE OF CANNABINOID 1 RECEPTOR AGONIST ARACHIDONOYL CYCLOPROPYLAMIDE (ACPA) IN NON SMALL CELL LUNG CANCER” (HACETTEPE UNIVERSITESI, priority 2019, published 2026).
Entries after “also recorded” stand apart in the source; their conditions may differ.

How the values were obtained:
[1] = test system: H838 cells; assay: WST-1 proliferation analysis, H838; type: cell-based; settings: p<0.05
Text: (§1) 1.2. Evaluation of the Dose- and Time-Dependent Effect of ACPA to Cancer Cell Proliferation by WST-1 Technique

[2] = test system: A549 cells; assay: Real time impedance-based proliferation analysis, A549; type: cell-based
Description: (§2) 1.3. Evaluation of the Effect of ACPA against Cancer Cell Proliferation by Real Time Impedance-Based Proliferation Analysis
(§3) ACPA has been applied between this dose range (10^−9, 10^−10, 10^−11 and 10^−12 M) during the real time impedance-based proliferation analysis. After the cells are seeded when the cell indices reach 1.0, ACPA dose range has been applied. The graph has been normalized from the point where the cell indices reached 1.0 and ACPA application has been carried out at different doses. […] After ACPA has been added at the determined dose range, it has led to reduction in the proliferation of H1299 cells as of the 66th hour.

[3] = test system: H358 cells; assay: WST-1 proliferation analysis, H358; type: cell-based; settings: p<0.05
Text: as §1

[4] = test system: A549 cells; assay: WST-1 proliferation analysis, A549; type: cell-based
Text: as §1

[5] = test system: H838 cells; assay: Real time impedance-based proliferation analysis, H838; type: cell-based
Description: as §2, §3

[6] = test system: H1299 cells; assay: Real time impedance-based proliferation analysis, H1299; type: cell-based
Description: as §2, §3

[7] = test system: H1299 cells; assay: WST-1 proliferation analysis, H1299; type: cell-based; settings: all doses, days 1, 2 and 3, p<0.05
Text: as §1

[8] = test system: H358 cells; assay: Real time impedance-based proliferation analysis, H358; type: cell-based
[9] = test system: A549, H1299, H358 and H838 cells; assay: Efficient dose range over the 4 non-small cell lung cancer lines (WST-1 and real time impedance-based analysis); settings: 4 cell lines A549, H1299, H358 and H838
Description: as §3
Within the scope of the research, the efficient dose and time of the CB1 receptor agonist ACPA has been calculated using the WST-1 and real time impedance-based proliferation analysis method on the examined 4 different non-small cell lung cancer lines.

[10] = normalized cell index vs log ACPA concentration, read-out: antiproliferative IC50
[11] = dose ranges applied, depending on time

CCCCC/C=C\C/C=C\C/C=C\C/C=C\CCCC(=O)NC1CC1 [ACPA, Arachidonoyl cyclopropylamide]
proliferation vs control group (WST-1) ([1]; 2nd day, 10^−9 M): antiproliferative effect; also recorded: reduced the proliferation of H838 cells statistically significantly | proliferation vs control group (WST-1) ([1]; 3rd day, 10^−9 and 10^−12 M): antiproliferative effect; also recorded: reduced the proliferation of H838 cells statistically significantly | proliferation (normalized cell index) ([2]; ACPA 10^−9 to 10^−12 M): not exhibited a significant change | efficient dose, effect seen on the 48th hour ([2]; WST-1 and impedance analysis): 1.39 pM | IC50 [2, 10]: 1.39 pM | antiproliferative effect (WST-1) ([3]; 2nd day, all doses): Antiproliferative effect was seen | antiproliferative effect (WST-1) ([3]; day 1, doses 10^−10, 10^−8, 10^−7 and 10^−6 M): antiproliferative effect of ACPA was observed | proliferation vs control group (WST-1 absorbance) ([4]; day 1, doses 10^−12, 10^−11, 10^−10 and 10^−9 M, p<0.05): statistically significantly reduced | antiproliferative effect (WST-1) ([4]; second and 3rd days, doses applied): antiproliferative effect was not observed | proliferation in comparison to the control group (impedance) ([5]; 1.39×10^−12 M ACPA, 190th hour, p<0.05): statistically significant reduction | proliferation vs control group (normalized cell index) ([5]; ACPA doses, following the 30th hour, p<0.05): significantly reduced the proliferation of cells | efficient dose, effect seen on the 48th hour ([5]; WST-1 and impedance analysis): 34.7 pM | proliferation (normalized cell index) [5, 11]: reduced the proliferation | IC50 [5, 10]: 34.7 pM | proliferation in comparison to the control group (impedance) ([6]; 1.39×10^−12 M ACPA (free or released from nanoparticles), 48 and 72nd hours, p<0.05): significant reduction has been observed | proliferation (normalized cell index) ([6]; 10^−11 M, as of the 66th hour, p<0.05): significantly reduced the proliferation of cells | proliferation (normalized cell index) ([6]; 10^−12, 10^−10 and 10^−9 M, after the 86th hour, p<0.05): significantly reduced the proliferation of cells | efficient dose, effect seen on the 48th hour ([6]; WST-1 and impedance analysis): 1.39 pM | proliferation (normalized cell index) [6, 11]: reduced the proliferation | IC50 [6, 10]: 1.39 pM | antiproliferative effect (WST-1) [7]: significant antiproliferative effect; also recorded: Antiproliferative effect has been observed | efficient dose, effect seen on the 48th hour ([8]; WST-1 and impedance analysis): 1.39 pM | proliferation (normalized cell index) [8, 11]: reduced the proliferation | IC50 [8, 10]: 1.38 pM | dose range found to be efficient in WST-1 analysis [9]: 10^−12-10^−9 M
